Data as given in PubChem BioAssay AID198 (DTP/NCI, 2004).
“And” between values parts separate entries of the source, which are not always exact repeats. Identical values can stand only once. Toxic doses and inconclusive results are not listed.

System: B16 melanoma ip, C57BL/6 mice, median survival T/C
Test: NCI In Vivo Anticancer Drug Screen. Data for tumor model B16 Melanoma (intraperitoneal) in C57BL/6 mice
Conditions: endpoint: median survival time, higher = longer survival
Method: The antitumor activity of compounds was measured in mice bearing transplantable tumors. Survival or tumor size were measured and the results are expressed as the measurement made in the treated group (T) divided by the measurement made in the vehicle treated control group (C). The tumor model used in this assay is B16 Melanoma (intraperitoneal) in C57BL/6 mice

[1] = dose: 50.0 mg/kg/injection, schedule: Q01DX009 (ip), vehicle: saline
[2] = dose: 100.0 mg/kg/injection, schedule: Q01DX009 (ip), vehicle: saline
[3] = dose: 200.0 mg/kg/injection, schedule: Q01DX009 (ip), vehicle: saline
[4] = dose: 125.0 mg/kg/injection, schedule: Q01DX009 (ip), vehicle: saline
[5] = dose: 250.0 mg/kg/injection, schedule: Q01DX009 (ip), vehicle: saline
[6] = dose: 500.0 mg/kg/injection, schedule: Q01DX009 (ip), vehicle: saline
[7] = dose: 6.25 mg/kg/injection, schedule: Q01DX009 (ip), vehicle: saline
[8] = dose: 0.13 mg/kg/injection, schedule: Q01DX009 (ip), vehicle: saline
[9] = dose: 0.25 mg/kg/injection, schedule: Q01DX009 (ip), vehicle: saline
[10] = dose: 0.5 mg/kg/injection, schedule: Q01DX009 (ip), vehicle: saline
[11] = dose: 1.0 mg/kg/injection, schedule: Q01DX009 (ip), vehicle: saline
[12] = dose: 31.3 mg/kg/injection, schedule: Q01DX009 (ip), vehicle: saline
[13] = dose: 62.5 mg/kg/injection, schedule: Q01DX009 (ip), vehicle: saline
[14] = dose: 12.5 mg/kg/injection, schedule: Q01DX009 (ip), vehicle: saline
[15] = dose: 25.0 mg/kg/injection, schedule: Q01DX009 (ip), vehicle: saline with Tween-80
[16] = dose: 50.0 mg/kg/injection, schedule: Q01DX009 (ip), vehicle: saline with Tween-80
[17] = dose: 25.0 mg/kg/injection, schedule: Q01DX009 (ip), vehicle: saline
[18] = dose: 6.25 mg/kg/injection, schedule: Q01DX009 (ip), vehicle: saline with Tween-80
[19] = dose: 12.5 mg/kg/injection, schedule: Q01DX009 (ip), vehicle: saline with Tween-80
[20] = dose: 100.0 mg/kg/injection, schedule: Q01DX009 (ip), vehicle: saline with Tween-80

`CCSCCC(N)C(=O)O` (configuration not stated) was tested, and the T/C [1] was 100 % of control, the T/C [2] was 100 % of control and the T/C [3] was 90 % of control.
With `CCOC(N)=O` the T/C [4] was 100 % of control, the T/C [5] was 107 % of control and the T/C [6] was 100 % of control.
For `O=NN(CCCl)C(=O)Nc1ccc(CCCl)cc1`, the T/C (dose: 3.13 mg/kg/injection, schedule: Q01DX009 (ip), vehicle: saline) was 267 % of control and the T/C [7] was 217 % of control.
`CNNCc1ccc(C(=O)NC(C)C)cc1` was tested, and the T/C [1] was 121 % of control, the T/C [2] was 121 % of control and the T/C [3] was 110 % of control and 121 % of control.
`COc1ccc2c3c(c4cc(OC)c(OC)cc4c2c1)C[C@H]1CCCCN1C3` was tested, and the T/C [8] was 100 % of control, the T/C [9] was 100 % of control and 119 % of control and the T/C [10] was 113 % of control. For the same molecule, the T/C [11] was 90 % of control.
For `CC(C)=CCC/C(C)=C/CO`, the T/C (dose: 15.6 mg/kg/injection, schedule: Q01DX009 (ip), vehicle: saline) was 93 % of control, the T/C [12] was 96 % of control and the T/C [13] was 86 % of control. The T/C [4] was 86 % of control.
With `CN[C@H]1CCc2cc(OC)c(OC)c(OC)c2-c2ccc(OC)c(=O)cc21` the T/C (dose: 1.25 mg/kg/injection, schedule: Q01DX009 (ip), vehicle: saline) was 100 % of control, the T/C (dose: 1.3 mg/kg/injection, schedule: Q01DX009 (ip), vehicle: saline) was 100 % of control and the T/C (dose: 2.5 mg/kg/injection, schedule: Q01DX009 (ip), vehicle: saline) was 100 % of control and 103 % of control. For the same molecule, the T/C (dose: 5.0 mg/kg/injection, schedule: Q01DX009 (ip), vehicle: saline) was 93 % of control and 113 % of control and the T/C (dose: 10.0 mg/kg/injection, schedule: Q01DX009 (ip), vehicle: saline) was 93 % of control.
`Cn1c(=O)c2ncnnc2n(C)c1=O` was tested, and the T/C [7] was 106 % of control and the T/C [14] was 103 % of control.
For `N#CSCc1ccc(Cl)cc1Cl`, the T/C [15] was 102 % of control and the T/C [16] was 100 % of control.
For `C[C@]12C=CC(=O)C=C1CC[C@@H]1[C@@H]2C(=O)C[C@@]2(C)[C@H]1CC[C@]2(O)C(=O)CO`, the T/C [14] was 100 % of control, the T/C [17] was 100 % of control and the T/C [2] was 88 % of control.
For `OC1CCCC2CCC[N-]C12.OC1CCCC2CCC[N-]C12.[O]=[V][OH]` (configuration not stated), the T/C [18] was 107 % of control, the T/C [19] was 107 % of control and the T/C [15] was 107 % of control.
For `CN(Cc1cnc2nc(N)nc(N)c2n1)c1ccc(C(=O)N[C@@H](CCC(=O)O)C(=O)O)cc1`, the T/C (dose: 0.38 mg/kg/injection, schedule: Q01DX009 (ip), vehicle: saline) was 100 % of control and 106 % of control, the T/C (dose: 0.75 mg/kg/injection, schedule: Q01DX009 (ip), vehicle: saline) was 100 % of control and 106 % of control and the T/C (dose: 1.5 mg/kg/injection, schedule: Q01DX009 (ip), vehicle: saline) was 93 % of control and 100 % of control. The T/C (dose: 3.0 mg/kg/injection, schedule: Q01DX009 (ip), vehicle: saline) was 100 % of control.
`C1CN1c1nc(N2CC2)nc(N2CC2)n1` was tested, and the T/C [8] was 103 % of control and 116 % of control and 120 % of control, the T/C [9] was 109 % of control and 120 % of control and 122 % of control and the T/C [10] was 86 % of control. The T/C [11] was 100 % of control.
For `CCN(CC)CCOc1ccc2c(c1)C(=O)c1cc(OCCN(CC)CC)ccc1-2`, the T/C [15] was 103 % of control, the T/C [16] was 92 % of control and the T/C [20] was 114 % of control.
`S=c1nc[nH]c2nc[nH]c12` was tested, and the T/C (dose: 7.5 mg/kg/injection, schedule: Q01DX009 (ip), vehicle: saline) was 93 % of control and 100 % of control, the T/C (dose: 15.0 mg/kg/injection, schedule: Q01DX009 (ip), vehicle: saline) was 90 % of control and 93 % of control and the T/C (dose: 30.0 mg/kg/injection, schedule: Q01DX009 (ip), vehicle: saline) was 93 % of control. The T/C (dose: 60.0 mg/kg/injection, schedule: Q01DX009 (ip), vehicle: saline) was 93 % of control.
In the case of `O=c1[nH]c(=O)c2n[nH]nc2[nH]1`, the T/C [13] is reported as 96 % of control, the T/C [4] is reported as 100 % of control and the T/C [5] is reported as 92 % of control. For the same molecule, the T/C [6] was 92 % of control.
`CO[C@H]1/C=C/O[C@@]2(C)Oc3c(C)c(O)c4c(O)c(c(/C=N/N5CCN(C)CC5)c(O)c4c3C2=O)NC(=O)/C(C)=C\C=C\[C@H](C)[C@H](O)[C@@H](C)[C@@H](O)[C@@H](C)[C@H](OC(C)=O)[C@@H]1C` was tested, and the T/C [1] was 106 % of control, the T/C [2] was 109 % of control and the T/C [3] was 112 % of control.
With `COc1cc(C[C@H]2c3cc(OC)c(OC)cc3CCN2C)c(Oc2cc3c(cc2OC)-c2c(OC)c(OC)cc4c2[C@H](C3)N(C)CC4)cc1OC` the T/C [17] was 96 % of control, the T/C [1] was 96 % of control and the T/C [2] was 92 % of control.
`CC1=C2C(=CC(C)(C)[C@@H]2O)C(=O)[C@](C)(O)C12CC2` was tested, and the T/C (dose: 0.17 mg/kg/injection, schedule: Q01DX009 (ip), vehicle: saline) was 110 % of control, the T/C (dose: 0.26 mg/kg/injection, schedule: Q01DX009 (ip), vehicle: saline) was 106 % of control and the T/C (dose: 0.4 mg/kg/injection, schedule: Q01DX009 (ip), vehicle: saline) was 106 % of control. The T/C (dose: 0.6 mg/kg/injection, schedule: Q01DX009 (ip), vehicle: saline) was 106 % of control.
With `O=P1(N(CCCl)CCCl)NCCCO1` (configuration not stated) the T/C [17] was 93 % of control and the T/C [2] was 90 % of control.
For `CS(=O)(=O)OCCCCOS(C)(=O)=O`, the T/C (dose: 3.12 mg/kg/injection, schedule: Q01DX009 (ip), vehicle: saline) was 103 % of control, the T/C [7] was 96 % of control and the T/C [14] was 106 % of control. For the same molecule, the T/C [17] was 103 % of control.
In the case of `CC(Cc1ccc(O)c(O)c1)C(C)Cc1ccc(O)c(O)c1` (configuration not stated), the T/C [1] is reported as 103 % of control, the T/C [2] is reported as 106 % of control and the T/C [3] is reported as 113 % of control. For the same molecule, the T/C (dose: 400.0 mg/kg/injection, schedule: Q01DX009 (ip), vehicle: saline) was 113 % of control.
`CN(C)CC(=O)c1ccc(O)c(O)c1` was tested, and the T/C (dose: 75.0 mg/kg/injection, schedule: Q01DX009 (ip), vehicle: saline) was 112 % of control, the T/C (dose: 150.0 mg/kg/injection, schedule: Q01DX009 (ip), vehicle: saline) was 109 % of control and the T/C (dose: 300.0 mg/kg/injection, schedule: Q01DX009 (ip), vehicle: saline) was 115 % of control. For the same molecule, the T/C (dose: 600.0 mg/kg/injection, schedule: Q01DX009 (ip), vehicle: saline) was 121 % of control.
In the case of `COc1cc(/C=N\O)nc(-c2ccccn2)c1`, the T/C [17] is reported as 100 % of control, the T/C [1] is reported as 106 % of control and the T/C [2] is reported as 93 % of control.
With `COc1cc([C@@H]2c3cc4c(cc3[C@H](O)[C@H]3COC(=O)[C@H]23)OCO4)cc(OC)c1OC` the T/C (dose: 2.0 mg/kg/injection, schedule: Q01DX009 (ip), vehicle: saline) was 106 % of control, the T/C (dose: 4.0 mg/kg/injection, schedule: Q01DX009 (ip), vehicle: saline) was 120 % of control and the T/C (dose: 8.0 mg/kg/injection, schedule: Q01DX009 (ip), vehicle: saline) was 113 % of control. The T/C (dose: 16.0 mg/kg/injection, schedule: Q01DX009 (ip), vehicle: saline) was 96 % of control.
In the case of `CN(C)CCCN1c2ccc(O)cc2Sc2ccc(Cl)cc21`, the T/C [7] is reported as 109 % of control, the T/C [14] is reported as 115 % of control and the T/C [17] is reported as 103 % of control. For the same molecule, the T/C [1] was 103 % of control and 106 % of control and the T/C [2] was 100 % of control.
For `OCC1OC(n2cnc3c(Cl)ncnc32)C(O)C1O` (configuration not stated), the T/C [12] was 106 % of control and 107 % of control, the T/C [13] was 93 % of control and 100 % of control and the T/C [4] was 93 % of control and 100 % of control. For the same molecule, the T/C [5] was 86 % of control and 100 % of control.
For `Nc1ccc(Cl)cc1N`, the T/C (dose: 12.5 mg/kg/injection, schedule: Q01DX009 (ip), vehicle: other) was 106 % of control, the T/C (dose: 25.0 mg/kg/injection, schedule: Q01DX009 (ip), vehicle: other) was 100 % of control and the T/C (dose: 50.0 mg/kg/injection, schedule: Q01DX009 (ip), vehicle: other) was 100 % of control. The T/C (dose: 100.0 mg/kg/injection, schedule: Q01DX009 (ip), vehicle: other) was 90 % of control.
For `COc1cc([C@@H]2c3cc4c(cc3C[C@H]3COC(=O)[C@@H]32)OCO4)cc(OC)c1OC`, the T/C [18] was 110 % of control and the T/C [19] was 117 % of control.
With `O=C1CN=C(c2ccc[nH]2)c2cc(Cl)ccc2N1` the T/C [14] was 107 % of control, the T/C [15] was 107 % of control and the T/C [17] was 105 % of control. For the same molecule, the T/C (dose: 50.0 mg/kg/injection, schedule: Q01DX001 (ip), vehicle: saline) was 100 % of control, the T/C [16] was 100 % of control and the T/C [1] was 97 % of control. The T/C (dose: 100.0 mg/kg/injection, schedule: Q01DX001 (ip), vehicle: saline) was 100 % of control, the T/C [20] was 103 % of control and the T/C [2] was 97 % of control. The T/C (dose: 200.0 mg/kg/injection, schedule: Q01DX001 (ip), vehicle: saline) was 97 % of control, the T/C (dose: 200.0 mg/kg/injection, schedule: Q01DX009 (ip), vehicle: saline with Tween-80) was 107 % of control and the T/C [3] was 112 % of control. For the same molecule, the T/C (dose: 400.0 mg/kg/injection, schedule: Q01DX001 (ip), vehicle: saline) was 102 % of control.
